# Measurements: patent publication US20080227684A1, “Small Molecule Inhibitors of PDZ Interactions” (priority 2005, published 2008)
# Legend:
# Assay in all cases: Matrix modified G-assay, small molecule competition titration
# [1] = target: T1, Shank 1 (Homo sapiens, UniProt Q9Y566); conditions: competition with biotinylated PL peptide at GST-PDZ fusion protein; read-out: IC50 Shank 1 (relative binding affinity by titration analysis)
# T1 construct: made in house
# T1 sequence (Q9Y566 663-757 limits assumed): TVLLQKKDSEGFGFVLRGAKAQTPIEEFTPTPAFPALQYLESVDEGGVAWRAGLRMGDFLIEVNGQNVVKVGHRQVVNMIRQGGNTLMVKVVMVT
# Experimental: (§1) Small Molecule Competition Assay. The reagents, supplies and protocol are as follows:
# (§2) Reagents and Supplies: • (1) Nunc Maxisorp 96 well Immuno-plates • (2) PBS pH 7.4 (phosphate buffered saline, 8 g NaCl, 0.29 g KCl, 1.44 g Na2HPO4, 0.24 g • (3) KH2PO4, add H2O to 1 L and pH 7.4; 0.2μ filter) • (4) Assay Buffer: 2% BSA in PBS (20 g of BSA per liter PBS), ICN Biomedicals • (5) Goat anti-GST polyclonal antibody, stock 5 mg/ml, stored at 4° C., (Amersham Pharmacia); Diluted 1:1000 in PBS to a final concentration 5 μg/ml • (6) HRP-Streptavidin, 2.5 mg/2 ml stock stored @ 4° C., Zymed,- dilute 1:2000 into Assay buffer, final [0.5 μg/ml] • (7) Biotinylated peptides (from Anaspec, stored in −20° C. freezer) • (8) GST-PRISM proteins (stock stored @ −80° C., after 1st thaw store in −10° C. freezer) • (9) TMB (3,3′,5,5′, teramethylbensidine), ready to use • (10) 0.18M H2SO4 • (11) 12-w multichannel pipettor • (12) 200 μl LTS tips • (13) 50 ml reagent reservoirs • (14) 50 polypropylene conical tubes • (15) 15 ml polypropylene round-bottom tubes • (16) 1.5 ml microtubes • (17) Molecular Devices microplate reader (450 nm filters) • (18) SoftMax Pro software • (19) Assay buffer (1×PBS, 0.01% Triton X-100)
# (§3) Protocol. The wells of eighteen to twenty 96-well plates were coated with 100 μl of 5 μg/ml anti-GST antibody (in each well), and left overnight at 4° C. The plates were then emptied by inverting and tapped dry on paper towels. 200 μl of blocking buffer (1×PBS/2% BSA) was added to each well and the plates were left for 1-2 hrs at room temperature. […] GST-PDZ fusion proteins were diluted to a final concentration of 5 μg/ml in 1×PBS/2% BSA and 50 μl was added to each well. After incubating for 1-2 hours at 4° C. excess unbound fusion protein was removed by washing, i.e., using the automatic plate washer (3× with room temperature 1×PBS).
# (§4) PDZ ligand peptides, small molecule test compounds, and HRP were prepared in Assay Buffer as follows: • Biotinylated PDZ ligand synthetic peptides were prepared in one-quarter final volume, i.e., at 4× final concentration; • Steptavidin-HRP conjugate (Zymed) was diluted (1:500) in one-quarter final volume, i.e., at 4× final concentration; • Biotinylated peptides and Streptavidin-HRP were then mixed together, and incubated for 20 min at room temperature to form a signal generating peptide ligand complex; • While the peptide/HRP mix was incubating, test compound dilutions were prepared in half the final volume, i.e., at 2× final concentration; and, • Immediately before adding the final peptide ligand complex mixture to the plate, the drug titration was added to give a mixture with 1× concentrations and the final correct total volume. The signal generating peptide ligand/test compound mixtures were then added to each well of the plates to give 50 μl per well and the time of each addition was recorded. The plates were then incubated at room temperature, after the last peptide had been added, for exactly 30 min. After incubation, the plates were washed using the automatic plate washer (7× with room temperature 1×PBS). To detect the signal generating peptide ligand TMB substrate (for HRP) was added to each well of the plates at 100 μl per well and the time of TMB addition was recorded. The plates were then incubated in the dark at room temperature for a maximum of 30 min. The calorimetric reaction was then stopped using 100 μl of 0.18M H2SO4 30 minutes after adding TMB. The signal in each well of the plates were then determined by measuring the optical density at 450 nm.
# (§5) The relative binding affinities of the compounds in FIG. 2A, and other, small molecule inhibitors were determined by titrating the compounds in the same competitive binding assay.
# [2] = target: T2, Magi1 d1 (Homo sapiens, UniProt Q96QZ7); conditions: competition with biotinylated PL peptide at GST-PDZ fusion protein; read-out: IC50 Magi1 d1 (relative binding affinity by titration analysis)
# T2 construct: made in house
# Experimental: as §1, §2, §3, §4, §5
# [3] = target: T3, PSD95 d1 (Homo sapiens, UniProt P78352); conditions: competition with biotinylated PL peptide at GST-PDZ fusion protein; read-out: IC50 PSD95 d1 (relative binding affinity by titration analysis)
# T3 construct: made in house
# Experimental: as §1, §2, §3, §4, §5
# [4] = target: T4, Tip1 (Homo sapiens, UniProt O14907); conditions: competition with biotinylated PL peptide at GST-PDZ fusion protein; read-out: IC50 Tip1 (relative binding affinity by titration analysis)
# T4 construct: made in house
# T4 sequence (O14907 15-112 limits assumed): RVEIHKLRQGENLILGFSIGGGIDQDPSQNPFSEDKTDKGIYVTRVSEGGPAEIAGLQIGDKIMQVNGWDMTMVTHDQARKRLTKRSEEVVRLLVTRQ
# Experimental: as §1, §2, §3, §4, §5
# [5] = target: T5, PSD95 d3 (Homo sapiens, UniProt P78352); conditions: competition with biotinylated PL peptide at GST-PDZ fusion protein; read-out: IC50 PSD95 d3 (relative binding affinity by titration analysis)
# T5 construct: made in house
# Experimental: as §1, §2, §3, §4, §5
# [6] = target: T6, PSD95 d2 (Homo sapiens, UniProt P78352); conditions: competition with biotinylated PL peptide at GST-PDZ fusion protein; read-out: IC50 PSD95 d2 (relative binding affinity by titration analysis)
# T6 construct: made in house
# Experimental: as §1, §2, §3, §4, §5
# T2 sequence (Q96QZ7 472-554 limits assumed): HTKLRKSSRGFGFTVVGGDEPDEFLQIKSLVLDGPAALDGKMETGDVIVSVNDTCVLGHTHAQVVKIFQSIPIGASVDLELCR
Compound,IC50 [1] [µM],IC50 [2] [µM],IC50 [3] [µM],IC50 [4] [µM],IC50 [5] [µM],IC50 [6] [µM]
CCOc1ccc(NS(=O)(=O)c2cc(C(=O)Nc3ccccc3C(=O)O)ccc2C)cc1 [Compound 3558-0042],> 250,> 250,> 250,> 250,> 250,> 250
O=C(Nc1ccccc1C(=O)O)c1cccc(NC(=O)C(c2ccccc2)c2ccccc2)c1 [Compound 3289-2331],> 250,130,> 250,> 250,> 250,> 250
CC(=O)N1CCc2cc(S(=O)(=O)NC(Cc3ccccc3)C(=O)Nc3ccccc3C(=O)O)ccc21 (stereo not drawn) [Compound C450-0454],> 250,> 250,206,> 250,> 250,> 250
O=C(NCCO)C(=O)Nc1ccccc1C(=O)O [MC 247808],> 250,> 250,> 250,> 250,> 250,221
Cc1ccc([N+](=O)[O-])cc1NC(=O)c1cc(S(=O)(=O)Nc2cccc(C(=O)O)c2)c(Cl)cc1Cl [Compound 8009-5039],> 250,> 250,> 250,> 250,> 250,> 250

# More lines, now with the values ahead:
IC50 [1] [µM],IC50 [2] [µM],IC50 [3] [µM],IC50 [4] [µM],IC50 [5] [µM],IC50 [6] [µM],Compound
> 250,> 250,> 250,> 250,> 250,> 250,CCOc1ccc(NS(=O)(=O)c2cccc(C(=O)Nc3ccccc3C(=O)O)c2)cc1 [Compound 3019-0348]
7.59,60.8,2.5,> 250,3.47,4.98,COc1cccc(-c2nc3c(c(SCC(=O)Nc4cccc(C(=O)O)c4)n2)Cc2c(CO)cnc(C)c2O3)c1 [Compound E544-0129]
